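Assay format: 96-well plates, 48-hour exposure. GI50 is the concentration that inhibits growth by half. TGI marks complete inhibition of growth.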
Assays:
Experiment in all cases: inhibition of tumour cell growth, NCI panel, 48 h
SNB-75 CNS = tested on: SNB-75 CNS
A549 NSCLC = tested on: A549 NSCLC
HCC-2998 colon = tested on: HCC-2998 colon
HCT-116 colon = tested on: HCT-116 colon
NCI-H226 lung = tested on: NCI-H226 lung
NCI-H460 lung = tested on: NCI-H460 lung
SW-620 colon = tested on: SW-620 colon
EKVX NSCLC = tested on: EKVX NSCLC
HT29 colon = tested on: HT29 colon
A498 renal = tested on: A498 renal
OVCAR-5 ovarian = tested on: OVCAR-5 ovarian
SK-MEL-5 melanoma = tested on: SK-MEL-5 melanoma
OVCAR-8 ovarian = tested on: OVCAR-8 ovarian
KM12 colon = tested on: KM12 colon
OVCAR-3 ovarian = tested on: OVCAR-3 ovarian
UACC-257 melanoma = tested on: UACC-257 melanoma
SN12C renal = tested on: SN12C renal
SK-OV-3 ovarian = tested on: SK-OV-3 ovarian
U251 CNS = tested on: U251 CNS
HL-60(TB) leukemia = tested on: HL-60(TB) leukemia
T-47D breast = tested on: T-47D breast
RXF 393 renal = tested on: RXF 393 renal
SR leukemia = tested on: SR leukemia
786-0 renal = tested on: 786-0 renal
NCI-H522 lung = tested on: NCI-H522 lung
HOP-62 NSCLC = tested on: HOP-62 NSCLC
M14 melanoma = tested on: M14 melanoma
NCI/ADR-RES ovarian = tested on: NCI/ADR-RES ovarian
BT-549 breast = tested on: BT-549 breast
K-562 leukemia = tested on: K-562 leukemia
NCI-H23 lung = tested on: NCI-H23 lung
COLO 205 colon = tested on: COLO 205 colon
MDA-MB-231 breast = tested on: MDA-MB-231 breast
HOP-92 NSCLC = tested on: HOP-92 NSCLC
MDA-MB-435 = tested on: MDA-MB-435
OVCAR-4 ovarian = tested on: OVCAR-4 ovarian
LOX IMVI melanoma = tested on: LOX IMVI melanoma
ACHN renal = tested on: ACHN renal
SF-268 CNS = tested on: SF-268 CNS
HS 578T breast = tested on: HS 578T breast
IGROV1 ovarian = tested on: IGROV1 ovarian
CAKI-1 renal = tested on: CAKI-1 renal
MALME-3M melanoma = tested on: MALME-3M melanoma
SF-539 CNS = tested on: SF-539 CNS
HCT-15 colon = tested on: HCT-15 colon
MCF7 breast = tested on: MCF7 breast
SK-MEL-2 melanoma = tested on: SK-MEL-2 melanoma
SNB-19 CNS = tested on: SNB-19 CNS
PC-3 prostate = tested on: PC-3 prostate
DU-145 prostate = tested on: DU-145 prostate
CCRF-CEM leukemia = tested on: CCRF-CEM leukemia
MOLT-4 leukemia = tested on: MOLT-4 leukemia
SK-MEL-28 melanoma = tested on: SK-MEL-28 melanoma
RPMI-8226 leukemia = tested on: RPMI-8226 leukemia
SF-295 CNS = tested on: SF-295 CNS
UACC-62 melanoma = tested on: UACC-62 melanoma
TK-10 renal = tested on: TK-10 renal
UO-31 renal = tested on: UO-31 renal

SMILES: C=C1C(=O)O[C@H]2[C@H]1CC/C(COC(=O)C(=O)c1c[nH]c3ccc(Cl)cc13)=C\CC[C@@]1(C)O[C@@H]21
- GI50 (SNB-75 CNS): 1.48 µM
- TGI (SNB-75 CNS): 3.87 µM
- GI50 (A549 NSCLC): 2.52 µM
- TGI (A549 NSCLC): 6.03 µM
- GI50 (HCC-2998 colon): 1.8 µM
- TGI (HCC-2998 colon): 3.36 µM
- GI50 (HCT-116 colon): 1.65 µM
- TGI (HCT-116 colon): 3.23 µM
- GI50 (NCI-H226 lung): 1.74 µM
- TGI (NCI-H226 lung): 3.31 µM
- GI50 (NCI-H460 lung): 2.45 µM
- TGI (NCI-H460 lung): 5.93 µM
- GI50 (SW-620 colon): 1.67 µM
- TGI (SW-620 colon): 10.3 µM
- GI50 (EKVX NSCLC): 2.06 µM
- TGI (EKVX NSCLC): 5.03 µM
- GI50 (HT29 colon): 0.781 µM
- TGI (HT29 colon): 3.01 µM
- GI50 (A498 renal): 2.75 µM
- TGI (A498 renal): 5.54 µM
- GI50 (OVCAR-5 ovarian): 2.1 µM
- TGI (OVCAR-5 ovarian): 5.17 µM
- GI50 (SK-MEL-5 melanoma): 1.86 µM
- TGI (SK-MEL-5 melanoma): 3.41 µM
- GI50 (OVCAR-8 ovarian): 2.32 µM
- TGI (OVCAR-8 ovarian): 6.82 µM
- GI50 (KM12 colon): 3.21 µM
- TGI (KM12 colon): 11.6 µM
- GI50 (OVCAR-3 ovarian): 0.52 µM
- TGI (OVCAR-3 ovarian): 2.01 µM
- GI50 (UACC-257 melanoma): 2 µM
- TGI (UACC-257 melanoma): 4.13 µM
- GI50 (SN12C renal): 1.84 µM
- TGI (SN12C renal): 4.17 µM
- GI50 (SK-OV-3 ovarian): 11.6 µM
- TGI (SK-OV-3 ovarian): 24.1 µM
- GI50 (U251 CNS): 1.9 µM
- TGI (U251 CNS): 3.45 µM
- GI50 (HL-60(TB) leukemia): 1.91 µM
- TGI (HL-60(TB) leukemia): 5.09 µM
- GI50 (T-47D breast): 1.62 µM
- TGI (T-47D breast): 3.77 µM
- GI50 (RXF 393 renal): 1.4 µM
- TGI (RXF 393 renal): 2.79 µM
- GI50 (SR leukemia): 0.342 µM
- TGI (SR leukemia): 12.2 µM
- GI50 (786-0 renal): 1.53 µM
- TGI (786-0 renal): 2.93 µM
- GI50 (NCI-H522 lung): 1.53 µM
- TGI (NCI-H522 lung): 3.24 µM
- GI50 (HOP-62 NSCLC): 1.63 µM
- TGI (HOP-62 NSCLC): 3.66 µM
- GI50 (M14 melanoma): 1.59 µM
- TGI (M14 melanoma): 3.62 µM
- GI50 (NCI/ADR-RES ovarian): 1.94 µM
- TGI (NCI/ADR-RES ovarian): 4.94 µM
- GI50 (BT-549 breast): 1.38 µM
- TGI (BT-549 breast): 3.19 µM
- GI50 (K-562 leukemia): 1.58 µM
- TGI (K-562 leukemia): 6.18 µM
- GI50 (NCI-H23 lung): 1.65 µM
- TGI (NCI-H23 lung): 3.31 µM
- GI50 (COLO 205 colon): 2.12 µM
- TGI (COLO 205 colon): 4.58 µM
- GI50 (MDA-MB-231 breast): 1.84 µM
- TGI (MDA-MB-231 breast): 4.03 µM
- GI50 (HOP-92 NSCLC): 1.86 µM
- TGI (HOP-92 NSCLC): 3.42 µM
- GI50 (MDA-MB-435): 1.8 µM
- TGI (MDA-MB-435): 4.23 µM
- GI50 (OVCAR-4 ovarian): 2.34 µM
- TGI (OVCAR-4 ovarian): 7.03 µM
- GI50 (LOX IMVI melanoma): 0.183 µM
- TGI (LOX IMVI melanoma): 0.396 µM
- GI50 (ACHN renal): 1.32 µM
- TGI (ACHN renal): 2.7 µM
- GI50 (SF-268 CNS): 1.73 µM
- TGI (SF-268 CNS): 3.97 µM
- GI50 (HS 578T breast): 3.52 µM
- TGI (HS 578T breast): 29.4 µM
- GI50 (IGROV1 ovarian): 1.63 µM
- TGI (IGROV1 ovarian): 3.32 µM
- GI50 (CAKI-1 renal): 2.81 µM
- TGI (CAKI-1 renal): 10.9 µM
- GI50 (MALME-3M melanoma): 1.74 µM
- TGI (MALME-3M melanoma): 3.47 µM
- GI50 (SF-539 CNS): 1.74 µM
- TGI (SF-539 CNS): 3.32 µM
- GI50 (HCT-15 colon): 0.382 µM
- TGI (HCT-15 colon): 1.63 µM
- GI50 (MCF7 breast): 0.779 µM
- TGI (MCF7 breast): 4.27 µM
- GI50 (SK-MEL-2 melanoma): 1.94 µM
- TGI (SK-MEL-2 melanoma): 4.23 µM
- GI50 (SNB-19 CNS): 3.22 µM
- TGI (SNB-19 CNS): 10.8 µM
- GI50 (PC-3 prostate): 1.76 µM
- TGI (PC-3 prostate): 3.57 µM
- GI50 (DU-145 prostate): 1.9 µM
- TGI (DU-145 prostate): 4.13 µM
- GI50 (CCRF-CEM leukemia): 0.375 µM
- TGI (CCRF-CEM leukemia): 10.1 µM
- GI50 (MOLT-4 leukemia): 0.778 µM
- TGI (MOLT-4 leukemia): 5.47 µM
- GI50 (SK-MEL-28 melanoma): 1.88 µM
- TGI (SK-MEL-28 melanoma): 3.92 µM
- GI50 (RPMI-8226 leukemia): 0.422 µM
- TGI (RPMI-8226 leukemia): 3.29 µM
- GI50 (SF-295 CNS): 5.77 µM
- TGI (SF-295 CNS): 18.6 µM
- GI50 (UACC-62 melanoma): 1.28 µM
- TGI (UACC-62 melanoma): 3.54 µM
- GI50 (TK-10 renal): 1.73 µM
- TGI (TK-10 renal): 3.2 µM
- GI50 (UO-31 renal): 1.22 µM
- TGI (UO-31 renal): 2.53 µM
